Test results published in patent publication US20240325330A1, “NEW METHOD TO TREAT ACIDOSIS RELATED DISEASES WITH ACETOACETATE” (INSTITUT NATIONAL DE LA SANTÉ ET DE LA RECHERCHE MÉDICALE, priority 2021, published 2024).

What was measured:
Format in all cases: cell-based
[1] = tested on: human monocytes differentiated into macrophages under lactic acidosis (LA-Mφ); assay: Mitochondrial membrane potential (MitoTracker Green / Deep Red flow cytometry) in macrophages under lactic acidosis; conditions: 5 mM AcAc, 10 mM lactic acid (pHe 6.5), LA-Mφ+AcAc vs LA alone; data not shown
Procedure: (§1) Peripheral blood mononuclear cells (PBMC) were obtained from healthy human volunteers (Blood collection center, Angers, France; agreement ANG-2017-01) by standard density-gradient centrifugation on lymphocyte separation medium (Eurobio, Courtaboeuf, France). CD14+ monocytes were then isolated by positive magnetic cell-sorting (Miltenyi Biotec, Bergisch Gladbach, Germany). Monocytes (1×10^6 cells/mL) were cultured in complete medium (CM) consisting of RPMI 1640 (Lonza, Verviers, Belgium) supplemented with 10% fetal calf serum (FCS) (Eurobio), 2 mM L-glutamine, 1 mM sodium pyruvate, 0.1 mM non-essential amino acids, 10 mM HEPES, 100 U/mL penicillin and 100 μg/mL streptomycin (all from Lonza) in the presence of 50 ng/mL GM-CSF (R&D Systems, Minneapolis, MN). […]
Mitochondrial membrane potential was assessed by incubating with 10 nM MitoTracker Green and 5 nM MitoTracker DeepRed (Thermo Fisher Scientific, Waltham, MA) in PBS containing 1% (w/v) BSA in PBS (PBS/BSA) at 37° C. for 15 min. […] Flow cytometry data were acquired with a FACSCanto II flow cytometer (BD Biosciences, San Jose, CA) and analyzed with FlowJo software (Tree Star, Ashland, OR).

[2] = tested on: human monocytes differentiated into macrophages under lactic acidosis (LA-Mφ); assay: Mitochondrial network architecture, morphology and size (confocal microscopy, TEM); conditions: 5 mM AcAc, 10 mM lactic acid; compared with Mφ; data not shown
Procedure: as §1
Cells were first incubated with 150 nM MitoTracker Green (Thermo Fisher Scientific) in CM medium at 37° C. for 10 min. […] Image blobs were then analyzed with the regionprops function of Matlab.
We fixed 5×10^6 macrophages by incubation for 16 h at 4° C. with 2.5% electron-grade glutaraldehyde (LFD Distribution, Sainte Consorce, France) in 0.1 M phosphate buffer pH 7.4. […] Stitched images were reviewed and scored by a trained electron histopathologist for the presence of autophagy and mitophagy vacuoles. Mitochondrial size was determined by measuring the maximum Feret diameter on TEM images.

[3] = tested on: human monocytes differentiated into macrophages under lactic acidosis (LA-Mφ); assay: Oxygen consumption rate (XF96 extracellular flux analyzer); conditions: LA-Mφ+AcAc compared to LA-Mφ
Procedure: as §1
We used an XF96 extracellular flux analyzer (Agilent Technologies, Santa Clara, CA) to determine the bioenergetic profile of cells. […] Oxygen consumption rate (OCR) was recorded, to assess mitochondrial respiratory activity and glycolytic activity. OCR was recorded in basal conditions, and the cells were then treated sequentially with 2 μg/mL oligomycin, and 3 μM carbonyl cyanide p-(trifluoromethoxy) phenylhydrazone (FCCP) (both from Sigma-Aldrich). […]

[4] = tested on: human monocytes exposed to lactic acid; assay: Intracellular pH (SNARF probe, flow cytometry); conditions: 10 mM lactic acid with 5 mM AcAc; FIG. 2E
Procedure: Peripheral blood mononuclear cells (PBMC) were obtained from healthy human volunteers (Blood collection center, Angers, France; agreement ANG-2017-01) by standard density-gradient centrifugation on lymphocyte separation medium (Eurobio, Courtaboeuf, France). CD14+ monocytes were then isolated by positive magnetic cell-sorting (Miltenyi Biotec, Bergisch Gladbach, Germany). […]
Intracellular pH (pHi) was measured by incubating 3×10^5 Mφ with 500 nM pH-sensitive dye carboxy-SNARF-AM (Life Technologies, Carlsbad, CA) in PBS/BSA at 37° C. for 20 min and then performing flow cytometry analysis. We determined pHi as the ratio of fluorescence intensities at two emission wavelengths (585/42 nm and 700/60 nm PMTs). SNARF fluorescence in macrophages was calibrated with a high-potassium buffer (39.6 mM NaCl, 120 mM KCl, 2.3 mM CaCl2), 1 mM MgCl2, 5 mM HEPES, 10 mM glucose) at pH values of 6.5 to 8, in the presence of 10 μM nigericin (Sigma-Aldrich); nigericin exchanges external potassium with internal protons to equilibrate extracellular and intracellular pH.

[5] = tested on: human monocyte-derived macrophages (Mφ, LA-Mφ); assay: Cytokine secretion after LPS stimulation (ELISA); conditions: day 5, LPS 16 h, FIG. 3
Procedure: Peripheral blood mononuclear cells (PBMC) were obtained from healthy human volunteers (Blood collection center, Angers, France; agreement ANG-2017-01) by standard density-gradient centrifugation on lymphocyte separation medium (Eurobio, Courtaboeuf, France). CD14+ monocytes were then isolated by positive magnetic cell-sorting (Miltenyi Biotec, Bergisch Gladbach, Germany). Monocytes (1×10^6 cells/mL) were cultured in complete medium (CM) consisting of RPMI 1640 (Lonza, Verviers, Belgium) supplemented with 10% fetal calf serum (FCS) (Eurobio), 2 mM L-glutamine, 1 mM sodium pyruvate, 0.1 mM non-essential amino acids, 10 mM HEPES, 100 U/mL penicillin and 100 μg/mL streptomycin (all from Lonza) in the presence of 50 ng/mL GM-CSF (R&D Systems, Minneapolis, MN).
Experiments were performed in the presence of 10 mM lactic acid (Sigma-Aldrich, St Louis, MO) resulting in a pHe of 6.5 to generate LA-Mφ (lactic acidosis conditioning), 12.35 mM HCl to reach a final pHe of 6.5 and to generate HCl-Mφ(acidosis conditioning), 10 mM sodium lactate (Sigma-Aldrich) to generate lactate-Mφ (lactosis conditioning, pH 7.3), in the absence or presence of 5 mM lithium acetoacetate (AcAc) (Sigma-Aldrich, St Louis, MO).
Day 5 GM-Mϕ, GM+LA-Mϕ and GM+LA-Mϕ+AcAc were stimulated with 200 ng/mL LPS (Sigma-Aldrich). Cytokines were quantified by ELISA (R&D Systems) in the supernatants collected at 16 h.

For `CC(=O)CC(=O)[O-].[Li+]` [AcAc, lithium acetoacetate], which mitochondrial depolarization [1] is on record?
The mitochondrial depolarization was “did not exhibit the mitochondrial depolarization”.

And the “mitochondrial network architecture (morphology and size)” value [2]?
The value was “protected the mitochondrial network architecture”.

And the OCR consumption [3]?
Its OCR consumption is “induced”.

What about the “immediate short-term decrease in pHi induced by extracellular acidosis” value [4] of the same compound?
The value was “remained detectable”.

And the “combined effect of AcAc and lactic acid on capacity to produce inflammatory cytokines and trophic factors” value ([5]; LA-Mφ+AcAc)?
Its value is “acted synergistically”.

What about the “cytokine phenotype of monocytes differentiated in the presence of AcAc” value ([5]; ELISA) of the same compound?
The value was “TNFαhigh IL-1βhigh IL-6high OSMhigh and VEGFhigh phenotype”.
